Assay results reported in patent US20020137929A1, “1 - (3-heterocyclylphenyl) isothiourea, -isourea, -guanidine and -amidine herbicidal agents” (Intellectual Property Department, BASF Aktiengesellschaft, priority 1998, published 2002).

Tests used:
CYPSE (Flatsedge) [1] = experiment: Postemergence weed control under flooded paddy conditions; type: in vivo, Cyperus serotinus; conditions: postemergence weeds, rated 3 to 4 weeks after treatment
In short: (§1)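 Herbicidal effect is judged by eye on a 0–9 scale versus control, 3–4 weeks after dosing. Dosing is into flood water kept 1.5–3 cm over the soil, at about 0.0313–0.500 kg/ha in aqueous/acetone 50/50 v/v, on 3–5 cm weeds and 1.5–2.5-leaf rice seedlings.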

SETVI (Foxtail, Green) [2] = experiment: Postemergence herbicidal evaluation; type: in vivo, Setaria viridis; conditions: postemergence
In short: (§2)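 First, seedlings were raised for around two weeks. Next, test material in 50/50 acetone/water containing 0.5% TWEEN 20 was sprayed through a nozzle at 40 psi, equivalent to about 0.0156–0.500 kg/ha. Finally, after 4–5 weeks in the greenhouse, plants were rated 0–9.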

SETVI (Foxtail, Green) [3] = experiment: Preemergence herbicidal evaluation; type: in vivo, Setaria viridis; conditions: rated 4-5 weeks after treatment
In short: (§3)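 Each species is sown separately in potting soil over roughly an inch of soil before any emergence. The soil surface then receives an aqueous acetone spray delivering about 0.0156 to 0.500 kg/ha of compound. After four to five weeks, injury is scored from 0 to 9 relative to a control.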

[4] = test system: TRZAWR (Wheat, Winter, cv Riband); experiment: Preemergence herbicidal evaluation; type: in vivo, Triticum aestivum; conditions: rated 4-5 weeks after treatment
In short: as §3

[5] = test system: ECHORC (Watergrass (Calif.)); experiment: Preemergence weed control under flooded paddy conditions; type: in vivo, Echinochloa oryzoides; conditions: rated 3-4 weeks after treatment
In short: (§4)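 Ratings on a 0-9 visual scale cover stand, vigor, malformation, size, chlorosis and overall appearance relative to a control, taken three to four weeks post-treatment. Application was into flood water over freshly sown silt loam at roughly 0.0313 to 0.500 kg/ha.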

CYPSE (Flatsedge) [6] = experiment: as above; type: in vivo, Cyperus serotinus; conditions: rated 3-4 weeks after treatment
In short: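 Flooded-pot preemergence screen with silt loam and seeds in the upper 0.5 cm. Dose about 0.0313 to 0.500 kg/ha, delivered into flood water; visual 0-9 score after 3 to 4 weeks.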

ZEAMX (Corn, Field) [7] = experiment: Postemergence herbicidal evaluation; type: in vivo, Zea mays; conditions: postemergence
In short: as §2

[8] = test system: ECHORC (Watergrass (Calif.)); experiment: Postemergence weed control under flooded paddy conditions; type: in vivo, Echinochloa oryzoides; conditions: postemergence weeds, rated 3 to 4 weeks after treatment
In short: as §1

ZEAMX (Corn, Field) [9] = experiment: Preemergence herbicidal evaluation; type: in vivo, Zea mays; conditions: rated 4-5 weeks after treatment
In short: as §3

CYPIR (Rice Flatsedge) [10] = experiment: Preemergence weed control under flooded paddy conditions; type: in vivo, Cyperus iria; conditions: rated 3-4 weeks after treatment
In short: as §4

ECHCG (Barnyardgrass) = experiment: Preemergence herbicidal evaluation; type: in vivo, Echinochloa crus-galli; conditions: rated 4-5 weeks after treatment
In short: as §3

CYPIR (Rice Flatsedge) [11] = experiment: Postemergence weed control under flooded paddy conditions; type: in vivo, Cyperus iria; conditions: postemergence weeds, rated 3 to 4 weeks after treatment
In short: as §1

ORYSAT (Rice, Tebonnet) = experiment: Postemergence herbicidal evaluation; type: in vivo, Oryza sativa, (L.) Tebonnet; conditions: postemergence
In short: as §2

[12] = test system: SAGPY (Arrowhead (Pygmaea)); experiment: Postemergence weed control under flooded paddy conditions; type: in vivo, Sagittaria pygmaea; conditions: postemergence weeds, rated 3 to 4 weeks after treatment
In short: as §1

`COC(=O)[C@H](Cc1ccc([N+](=O)[O-])cc1)N1C(=O)CSC1=Nc1cc(-n2c(=O)cc(C(F)(F)F)n(C)c2=O)c(F)cc1Cl` [Compound 78, Methyl 2-{{2-chloro-5-[3,6-dihydro-3-methyl-2,6-dioxo-4-(trifluoromethyl)-1(2H)-pyrimidinyl]-4-fluorophenyl}imino}-4-oxo-α-(p-nitrobenzyl)-3-thiazolidineacetate, L-] was tested, and the “Herbicidal rating CYPSE” value (CYPSE (Flatsedge) [1]; Rate 0.0313 kg/ha) was 6.0, the “Herbicidal rating CYPSE” value (CYPSE (Flatsedge) [1]; Rate 0.0625 kg/ha) was 6.0 and the “Herbicidal rating CYPSE” value (CYPSE (Flatsedge) [1]; Rate 0.1250 kg/ha) was 7.0. The “Herbicidal rating CYPSE” value (CYPSE (Flatsedge) [1]; Rate 0.2500 kg/ha) was 9.0, the SETVI herbicidal rating (SETVI (Foxtail, Green) [2]; rate 0.0158 kg/ha) was 1.0 and the SETVI herbicidal rating (SETVI (Foxtail, Green) [2]; rate 0.0315 kg/ha) was 1.0. For the same molecule, the SETVI herbicidal rating (SETVI (Foxtail, Green) [2]; rate 0.0630 kg/ha) was 1.0, the “Preemergence herbicidal rating SETVI” value (SETVI (Foxtail, Green) [3]; rate 0.0156 kg/ha) was 0.0 and the “Preemergence herbicidal rating SETVI” value (SETVI (Foxtail, Green) [3]; rate 0.0313 kg/ha) was 0.0. The “Preemergence herbicidal rating SETVI” value (SETVI (Foxtail, Green) [3]; rate 0.0625 kg/ha) was 0.0, the “Preemergence herbicidal rating SETVI” value (SETVI (Foxtail, Green) [3]; rate 0.1250 kg/ha) was 0.0 and the “Preemergence herbicidal rating SETVI” value (SETVI (Foxtail, Green) [3]; rate 0.2500 kg/ha) was 6.0. For the same molecule, the “Preemergence herbicidal rating TRZAWR” value ([4]; rate 0.0156 kg/ha) was 0.0, the “Preemergence herbicidal rating TRZAWR” value ([4]; rate 0.0313 kg/ha) was 0.0 and the “Preemergence herbicidal rating TRZAWR” value ([4]; rate 0.0625 kg/ha) was 0.0. The “Preemergence herbicidal rating TRZAWR” value ([4]; rate 0.1250 kg/ha) was 0.0, the “Preemergence herbicidal rating TRZAWR” value ([4]; rate 0.2500 kg/ha) was 0.0 and the “ECHORC herbicidal effect rating” value ([5]; 0.0313 kg/ha) was 7.0. For the same molecule, the “ECHORC herbicidal effect rating” value ([5]; 0.0625 kg/ha) was 7.0, the “ECHORC herbicidal effect rating” value ([5]; 0.1250 kg/ha) was 9.0 and the “ECHORC herbicidal effect rating” value ([5]; 0.2500 kg/ha) was 9.0. For the same molecule, the “CYPSE herbicidal effect rating” value (CYPSE (Flatsedge) [6]; 0.0313 kg/ha) was 6.0, the “CYPSE herbicidal effect rating” value (CYPSE (Flatsedge) [6]; 0.0625 kg/ha) was 6.0 and the “CYPSE herbicidal effect rating” value (CYPSE (Flatsedge) [6]; 0.1250 kg/ha) was 7.0. For the same molecule, the “CYPSE herbicidal effect rating” value (CYPSE (Flatsedge) [6]; 0.2500 kg/ha) was 9.0, the ZEAMX herbicidal rating (ZEAMX (Corn, Field) [7]; rate 0.0158 kg/ha) was 4.5 and the ZEAMX herbicidal rating (ZEAMX (Corn, Field) [7]; rate 0.0315 kg/ha) was 5.0. The ZEAMX herbicidal rating (ZEAMX (Corn, Field) [7]; rate 0.0630 kg/ha) was 5.0, the “Herbicidal rating ECHORC” value ([8]; Rate 0.0313 kg/ha) was 7.0 and the “Herbicidal rating ECHORC” value ([8]; Rate 0.0625 kg/ha) was 7.0. For the same molecule, the “Herbicidal rating ECHORC” value ([8]; Rate 0.1250 kg/ha) was 9.0, the “Herbicidal rating ECHORC” value ([8]; Rate 0.2500 kg/ha) was 9.0 and the “Preemergence herbicidal rating ZEAMX” value (ZEAMX (Corn, Field) [9]; rate 0.0156 kg/ha) was 0.0. The “Preemergence herbicidal rating ZEAMX” value (ZEAMX (Corn, Field) [9]; rate 0.0313 kg/ha) was 0.0, the “Preemergence herbicidal rating ZEAMX” value (ZEAMX (Corn, Field) [9]; rate 0.0625 kg/ha) was 0.0 and the “Preemergence herbicidal rating ZEAMX” value (ZEAMX (Corn, Field) [9]; rate 0.1250 kg/ha) was 0.0. For the same molecule, the “Preemergence herbicidal rating ZEAMX” value (ZEAMX (Corn, Field) [9]; rate 0.2500 kg/ha) was 1.0, the “CYPIR herbicidal effect rating” value (CYPIR (Rice Flatsedge) [10]; 0.0313 kg/ha) was 5.0 and the “CYPIR herbicidal effect rating” value (CYPIR (Rice Flatsedge) [10]; 0.0625 kg/ha) was 5.0. For the same molecule, the “CYPIR herbicidal effect rating” value (CYPIR (Rice Flatsedge) [10]; 0.1250 kg/ha) was 6.0, the “CYPIR herbicidal effect rating” value (CYPIR (Rice Flatsedge) [10]; 0.2500 kg/ha) was 9.0 and the “Preemergence herbicidal rating ECHCG” value (ECHCG (Barnyardgrass); rate 0.0156 kg/ha) was 0.0. For the same molecule, the “Preemergence herbicidal rating ECHCG” value (ECHCG (Barnyardgrass); rate 0.0313 kg/ha) was 0.0, the “Preemergence herbicidal rating ECHCG” value (ECHCG (Barnyardgrass); rate 0.0625 kg/ha) was 0.0 and the “Preemergence herbicidal rating ECHCG” value (ECHCG (Barnyardgrass); rate 0.1250 kg/ha) was 0.0. The “Preemergence herbicidal rating ECHCG” value (ECHCG (Barnyardgrass); rate 0.2500 kg/ha) was 1.0, the “Herbicidal rating CYPIR” value (CYPIR (Rice Flatsedge) [11]; Rate 0.0313 kg/ha) was 5.0 and the “Herbicidal rating CYPIR” value (CYPIR (Rice Flatsedge) [11]; Rate 0.0625 kg/ha) was 5.0. The “Herbicidal rating CYPIR” value (CYPIR (Rice Flatsedge) [11]; Rate 0.1250 kg/ha) was 6.0, the “Herbicidal rating CYPIR” value (CYPIR (Rice Flatsedge) [11]; Rate 0.2500 kg/ha) was 9.0 and the ORYSAT herbicidal rating (ORYSAT (Rice, Tebonnet); rate 0.0158 kg/ha) was 3.0. The ORYSAT herbicidal rating (ORYSAT (Rice, Tebonnet); rate 0.0315 kg/ha) was 3.5, the ORYSAT herbicidal rating (ORYSAT (Rice, Tebonnet); rate 0.0630 kg/ha) was 4.0 and the “Herbicidal rating SAGPY” value ([12]; Rate 0.0313 kg/ha) was 0.0. The “Herbicidal rating SAGPY” value ([12]; Rate 0.0625 kg/ha) was 0.0, the “Herbicidal rating SAGPY” value ([12]; Rate 0.1250 kg/ha) was 2.0 and the “Herbicidal rating SAGPY” value ([12]; Rate 0.2500 kg/ha) was 4.0.
